In ChEMBL document CHEMBL3352258 (J Med Chem, 2014):
≈ marks a conversion by molar mass, not a printed value.

Assays:
[1] = target: T1, Glucose-dependent insulinotropic receptor (Homo sapiens, UniProt Q8TDV5); assay: Agonist activity at human GPR119
T1 sequence (Q8TDV5 whole entry): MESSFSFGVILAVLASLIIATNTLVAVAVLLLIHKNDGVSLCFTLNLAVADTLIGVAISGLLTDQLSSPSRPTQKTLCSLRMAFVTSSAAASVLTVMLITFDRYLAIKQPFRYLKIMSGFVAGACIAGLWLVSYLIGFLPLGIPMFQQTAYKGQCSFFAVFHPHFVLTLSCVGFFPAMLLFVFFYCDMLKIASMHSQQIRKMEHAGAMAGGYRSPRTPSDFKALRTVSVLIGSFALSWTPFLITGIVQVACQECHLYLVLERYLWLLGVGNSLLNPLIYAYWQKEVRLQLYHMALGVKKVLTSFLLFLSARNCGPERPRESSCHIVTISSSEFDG

[2] = target: T2, Glucose-dependent insulinotropic receptor (Homo sapiens) (UniProt Q8TDV5); assay: Intrinsic activity at human GPR119 relative to control
T2 sequence (whole entry): T1 sequence (Q8TDV5 whole entry)

[3] = Solubility of the compound at pH 6.5; format: physicochemical; conditions: buffer
[4] = Half life in human liver microsomes; format: ADME
[5] = Half life in mouse; format: ADME, organism-based; conditions: in vivo
[6] = Half life in Sprague-Dawley rat at 5 mg/kg, po; format: ADME, organism-based; parameters: dose 5 mg/kg, route oral; conditions: Sprague-Dawley, in vivo
[7] = Solubility of the compound in 50% PEG400/ 50% PBS solution; format: physicochemical

SMILES	EC50 [1]	Intrinsic activity [2]	further results
CC(C)OC(=O)N1CC(Oc2ccn(-c3ccc(S(C)(=O)=O)cc3)c(=O)c2)C1	> 10000 nM	–	–
CCCc1cnc(N2CCC(Oc3ccn(-c4ccc(S(C)(=O)=O)cc4)c(=O)c3)CC2)nc1	16 nM	0.8	–
CCCc1cnc(N2CCC(Oc3ccn(-c4ccc(S(C)(=O)=O)cc4)c(=O)c3Cl)CC2)nc1	> 10000 nM	–	–
CCCc1cnc(N2CCC(Oc3ccn(-c4ccc(-n5ccnc5)cc4)c(=O)c3)CC2)nc1	–	0.8	–
CCCc1cnc(N2CCC(Oc3cc(=O)n(-c4ccc(S(C)(=O)=O)cc4)cc3C)CC2)nc1	31 nM	0.9	–
CCCc1cnc(N2CCC(Oc3ccn(-c4ccc([S+](C)[O-])cc4)c(=O)c3)CC2)nc1 (racemic)	41 nM	0.9	–
CCCc1cnc(N2CCC(Oc3ccn(-c4ccc(S(C)(=O)=O)c(F)c4)c(=O)c3)CC2)nc1	9 nM	0.8	–
CC(C)OC(=O)N1CC(COc2ccn(-c3ccc(S(C)(=O)=O)cc3)c(=O)c2)C1	> 10000 nM	–	–
CCc1ccc(N2CCC(Oc3ccn(-c4ccc(S(C)(=O)=O)cc4)c(=O)c3)CC2)nc1	104 nM	0.6	–
CS(=O)(=O)c1ccc(-n2cc(Cl)c(OC3CCN(c4ncc(Cl)cn4)CC3)cc2=O)cc1F	13 nM	–	solubility [3]: 3 µg/mL (≈ 5.84 µM); half-life [4]: 39 min; half-life [5]: 18 min; half-life [6]: 12 min; solubility [7]: 199 µg/mL (≈ 388 µM)
CC(C)OC(=O)N1[C@@H]2CC[C@@H]1CC(Oc1ccn(-c3ccc(S(C)(=O)=O)cc3)c(=O)c1)C2 (relative stereo; 13) [listing 1 of 2 here]	870 nM	–	–
CCc1cnc(N2CCC(Oc3ccn(-c4ccc(S(C)(=O)=O)cc4)c(=O)c3)CC2)nc1	57 nM	0.8	–
CCCc1cnc(N2CCC(Oc3cc(=O)n(-c4ccc(S(C)(=O)=O)cc4)cc3C#N)CC2)nc1	12 nM	0.8	–
CCCc1cnc(N2CCC(Oc3cc(=O)n(-c4ccc(S(C)(=O)=O)cc4)cc3Cl)CC2)nc1	–	0.8	–
CC(C)OC(=O)N1CCC(COc2ccn(-c3ccc(S(C)(=O)=O)cc3)c(=O)c2)C1 (stereo not given)	> 10000 nM	–	–
CCCc1cnc(N2CCC(Oc3cc(C)n(-c4ccc(S(C)(=O)=O)cc4)c(=O)c3)CC2)nc1	> 10000 nM	–	–
CCCc1cnc(N2CCC(Oc3ccn(-c4ccc(NC(=O)C(C)(C)C)cc4)c(=O)c3)CC2)nc1	37 nM	0.8	–
CCCc1cnc(N2CCC(Oc3ccn(-c4ccc(-n5cncn5)cc4)c(=O)c3)CC2)nc1	63 nM	0.8	–

SMILES	EC50 [1]	Intrinsic activity [2]	further results
CS(=O)(=O)c1ccc(-n2cc(Cl)c(OC3CCN(c4ncc(Cl)cn4)CC3)cc2=O)cc1	18 nM	–	solubility [3]: < 1 µg/mL; half-life [4]: 59 min; half-life [5]: 11 min; half-life [6]: 9 min; solubility [7]: 7 µg/mL (≈ 14.1 µM)
COc1cnc(N2CCC(Oc3ccn(-c4ccc(S(C)(=O)=O)cc4)c(=O)c3)CC2)nc1	117 nM	1	–
Cc1ccnc(N2CCC(Oc3ccn(-c4ccc(S(C)(=O)=O)cc4)c(=O)c3)CC2)n1	724 nM	0.3	–
CC(C)(C)OC(=O)N1CCC(Oc2ccn(-c3ccc(S(C)(=O)=O)cc3)c(=O)c2)CC1	183 nM	0.8	–
CC(C)OC(=O)N1CCC(Oc2ccn(-c3ccc(S(C)(=O)=O)cc3)c(=O)c2)C1 (stereo not given)	> 10000 nM	–	–
CS(=O)(=O)c1ccc(-n2cc(Cl)c(OC3CCN(c4ncc(C(F)(F)F)cn4)CC3)cc2=O)c(F)c1	12 nM	–	solubility [3]: 1 µg/mL (≈ 1.83 µM); half-life [4]: > 120 min; half-life [5]: 30 min; half-life [6]: > 72 min; solubility [7]: 122 µg/mL (≈ 223 µM)
CS(=O)(=O)c1ccc(-n2ccc(OC3CCN(c4ncc(C5CC5)cn4)CC3)cc2=O)cc1	23 nM	0.9	–
CCCc1cnc(N2CCC(Oc3cc(=O)n(-c4ccc(S(C)(=O)=O)cc4)cc3-c3ccccc3)CC2)nc1	> 10000 nM	–	–
CC(C)OC(=O)N1CCC(Oc2ccn(-c3ccc(S(C)(=O)=O)cc3)c(=O)c2)CC1	133 nM	0.8	–
CS(=O)(=O)c1ccc(-n2ccc(OC3CCN(C(=O)Oc4ccccc4)CC3)cc2=O)cc1	130 nM	0.9	–
CC(C)OC(=O)N1[C@@H]2CC[C@@H]1CC(Oc1ccn(-c3ccc(S(C)(=O)=O)cc3)c(=O)c1)C2 (relative stereo; 14)	–	0.7	–
CS(=O)(=O)c1ccc(-n2cc(Cl)c(OC3CCN(c4ncc(C(F)(F)F)cn4)CC3)cc2=O)cc1	13 nM	–	solubility [3]: < 1 µg/mL; half-life [4]: > 120 min; half-life [5]: 16 min; half-life [6]: > 72 min; solubility [7]: 3 µg/mL (≈ 5.67 µM)
CS(=O)(=O)c1ccc(-n2cc(Cl)c(OC3CCN(c4ncc(C(F)(F)F)cn4)CC3)cc2=O)cc1F	16 nM	–	solubility [3]: < 1 µg/mL; half-life [4]: > 120 min; half-life [5]: 27 min; half-life [6]: > 48 min; solubility [7]: 31 µg/mL (≈ 56.7 µM)
CCCc1cnc(N2CCC(Oc3ccn(-c4ccc(C#N)cc4)c(=O)c3)CC2)nc1	11 nM	0.8	–
CC(C)OC(=O)N1CCCC(Oc2ccn(-c3ccc(S(C)(=O)=O)cc3)c(=O)c2)CC1 (stereo not given)	1090 nM	0.7	–
CC(C)OC(=O)N1CCC(COc2ccn(-c3ccc(S(C)(=O)=O)cc3)c(=O)c2)CC1	1700 nM	0.7	–
CCCc1cnc(N2CCC(Oc3ccn(-c4ccc(N5CCCC5=O)cc4)c(=O)c3)CC2)nc1	32 nM	0.8	–
CC(C)OC(=O)N1[C@@H]2CC[C@@H]1CC(Oc1ccn(-c3ccc(S(C)(=O)=O)cc3)c(=O)c1)C2 (relative stereo; 13) [listing 2 of 2 here]	–	1	–
